Source: PubChem BioAssay (NCI)
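Cultured in 96-well plates, cells were exposed to test compound for 48 hours across five concentrations. The concentration for full growth arrest is given as TGI.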

Key:
Assay in all cases: NCI-60 cell line screen, 48 h
[1] = tested on: 786-0 renal
[2] = tested on: A498 renal
[3] = tested on: A549 NSCLC
[4] = tested on: ACHN renal
[5] = tested on: CAKI-1 renal
[6] = tested on: CCRF-CEM leukemia
[7] = tested on: COLO 205 colon
[8] = tested on: DU-145 prostate
[9] = tested on: EKVX NSCLC
[10] = tested on: HCC-2998 colon
[11] = tested on: HCT-116 colon
[12] = tested on: HCT-15 colon
[13] = tested on: HL-60(TB) leukemia
[14] = tested on: HOP-62 NSCLC
[15] = tested on: HOP-92 NSCLC
[16] = tested on: HS 578T breast
[17] = tested on: HT29 colon
[18] = tested on: IGROV1 ovarian
[19] = tested on: K-562 leukemia
[20] = tested on: KM12 colon
[21] = tested on: LOX IMVI melanoma
[22] = tested on: M14 melanoma
[23] = tested on: MALME-3M melanoma
[24] = tested on: MCF7 breast
[25] = tested on: MDA-MB-231 breast
[26] = tested on: MDA-MB-435
[27] = tested on: MDA-N
[28] = tested on: MOLT-4 leukemia
[29] = tested on: NCI-H226 lung
[30] = tested on: NCI-H23 lung
[31] = tested on: NCI-H460 lung
[32] = tested on: NCI-H522 lung
[33] = tested on: NCI/ADR-RES ovarian
[34] = tested on: OVCAR-3 ovarian
[35] = tested on: OVCAR-4 ovarian
[36] = tested on: OVCAR-5 ovarian
[37] = tested on: OVCAR-8 ovarian
[38] = tested on: PC-3 prostate
[39] = tested on: RPMI-8226 leukemia
[40] = tested on: RXF 393 renal
[41] = tested on: SF-268 CNS
[42] = tested on: SF-295 CNS
[43] = tested on: SF-539 CNS
[44] = tested on: SK-MEL-28 melanoma
[45] = tested on: SK-MEL-5 melanoma
[46] = tested on: SN12C renal
[47] = tested on: SNB-19 CNS
[48] = tested on: SNB-75 CNS
[49] = tested on: SR leukemia
[50] = tested on: SW-620 colon
[51] = tested on: T-47D breast
[52] = tested on: TK-10 renal
[53] = tested on: U251 CNS
[54] = tested on: UACC-257 melanoma
[55] = tested on: BT-549 breast
[56] = tested on: SK-MEL-2 melanoma
[57] = tested on: SK-OV-3 ovarian
[58] = tested on: UACC-62 melanoma
[59] = tested on: UO-31 renal

Measured: TGI

CC1CC(C)C(O)C(C2CC(CC(=O)NC3CCCCC3)CC(=O)O2)C1 (stereo not drawn)
not listed: [55] | [56] | [57] | [58] | [59]
> 100 µM: all other assays above

COc1cc(C2SCC(=O)N2c2cc(Cl)c(Cl)cc2Cl)cc(OC)c1OC (stereo not drawn)
77.6 µM: [6]
97.6 µM: [58]
64.7 µM: [55]
89.7 µM: [39]
95.4 µM: [27]
84.3 µM: [49]
not listed: [14] | [23] | [40] | [48] | [51]
> 100 µM: all other assays above
